# Laboratory results published in PMC6240891, “Functional Analysis of Four Terpene Synthases in Rose-Scented Pelargonium Cultivars (Pelargonium × hybridum) and Evolution of Scent in the Pelargonium Genus” (Frontiers in Plant Science, 2018).
# Columns and labels:
# Assay in all cases: GC-MS product analysis
# Assay type in all cases: biochemical
# Conditions in all cases: 10 mM MgCl2, 1 mM MnCl2, pH 7.5, 30°C, 2 h
# [1] = target: T1, PhEDS (Pelargonium graveolens, UniProt A0A2S1JKY7)
# T1 construct: gene EUS; full-length; E. coli Rosetta (DE3) pLysS
# T1 sequence (A0A2S1JKY7 1-567): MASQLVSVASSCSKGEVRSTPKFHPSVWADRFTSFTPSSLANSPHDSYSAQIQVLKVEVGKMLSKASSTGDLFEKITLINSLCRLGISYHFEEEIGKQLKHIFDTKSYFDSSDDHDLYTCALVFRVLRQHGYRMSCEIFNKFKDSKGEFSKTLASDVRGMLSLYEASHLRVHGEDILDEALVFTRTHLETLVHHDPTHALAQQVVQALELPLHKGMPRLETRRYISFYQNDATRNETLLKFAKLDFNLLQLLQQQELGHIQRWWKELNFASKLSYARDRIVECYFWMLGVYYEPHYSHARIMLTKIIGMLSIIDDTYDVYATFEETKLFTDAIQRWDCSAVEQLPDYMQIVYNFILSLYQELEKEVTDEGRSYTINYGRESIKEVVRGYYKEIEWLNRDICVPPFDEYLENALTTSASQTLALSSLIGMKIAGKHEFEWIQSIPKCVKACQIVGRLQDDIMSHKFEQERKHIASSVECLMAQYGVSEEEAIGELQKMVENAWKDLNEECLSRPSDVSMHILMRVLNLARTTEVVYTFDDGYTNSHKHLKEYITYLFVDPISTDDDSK
# [2] = target: T2, PhMYRS (Pelargonium graveolens, UniProt A0A2S1JKZ8)
# T2 construct: gene MYRS; full-length (predicted plastid-targeted); E. coli Rosetta (DE3) pLysS
# T2 sequence (A0A2S1JKZ8 1-606): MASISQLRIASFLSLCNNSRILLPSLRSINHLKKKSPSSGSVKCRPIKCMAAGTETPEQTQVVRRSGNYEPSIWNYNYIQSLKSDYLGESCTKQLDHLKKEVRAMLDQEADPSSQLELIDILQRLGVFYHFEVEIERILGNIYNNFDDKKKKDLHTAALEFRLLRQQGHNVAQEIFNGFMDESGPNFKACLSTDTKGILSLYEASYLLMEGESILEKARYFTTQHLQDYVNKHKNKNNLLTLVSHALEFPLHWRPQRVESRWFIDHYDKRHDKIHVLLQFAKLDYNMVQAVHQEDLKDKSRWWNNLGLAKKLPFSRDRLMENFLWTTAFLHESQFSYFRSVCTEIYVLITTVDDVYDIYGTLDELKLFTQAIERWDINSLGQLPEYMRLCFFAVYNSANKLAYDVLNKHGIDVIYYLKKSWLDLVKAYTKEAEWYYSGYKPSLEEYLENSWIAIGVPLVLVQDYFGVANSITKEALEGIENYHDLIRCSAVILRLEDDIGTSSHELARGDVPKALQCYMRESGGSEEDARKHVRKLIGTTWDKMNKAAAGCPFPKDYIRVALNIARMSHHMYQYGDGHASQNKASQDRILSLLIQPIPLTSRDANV
# [3] = target: T3, PhGES (Pelargonium graveolens, UniProt A0A2S1JKY6)
# T3 construct: gene GES; full-length (plastid-targeted); E. coli Rosetta (DE3) pLysS; 'Grasse' form lacks the TAL triplet of 'Bourbon' and 'Egypt'
# T3 sequence (A0A2S1JKY6 1-555): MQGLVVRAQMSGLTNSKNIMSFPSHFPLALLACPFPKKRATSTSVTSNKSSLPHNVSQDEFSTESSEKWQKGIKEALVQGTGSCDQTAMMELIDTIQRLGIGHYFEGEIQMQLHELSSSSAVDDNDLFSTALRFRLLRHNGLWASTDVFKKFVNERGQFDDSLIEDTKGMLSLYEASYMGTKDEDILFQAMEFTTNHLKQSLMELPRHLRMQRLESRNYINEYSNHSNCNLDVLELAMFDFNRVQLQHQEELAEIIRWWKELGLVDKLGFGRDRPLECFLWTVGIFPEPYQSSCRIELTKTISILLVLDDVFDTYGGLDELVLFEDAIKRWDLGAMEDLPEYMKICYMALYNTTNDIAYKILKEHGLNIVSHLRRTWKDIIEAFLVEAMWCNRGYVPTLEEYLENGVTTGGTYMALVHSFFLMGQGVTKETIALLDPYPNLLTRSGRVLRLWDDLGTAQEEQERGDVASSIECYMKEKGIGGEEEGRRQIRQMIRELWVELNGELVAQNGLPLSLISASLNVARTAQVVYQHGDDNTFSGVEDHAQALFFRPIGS
smiles,measurement,setting,value
CC1=C2CC(C(C)(C)O)CCC2(C)CCC1 (stereo not drawn) [10-epi-γ-eudesmol],GC-MS product analysis,[1]; major product from FPP,PhEDS (MF503882) produced 10-epi-γ-eudesmol and α-eudesmol as major and minor products
CC(C)=CCC/C(C)=C/COP(=O)(O)OP(=O)(O)O [GPP],GC-MS product analysis,[2]; 50 µM,PhMYRS (MF503884) used GPP to produce β-myrcene as major compound
same,GC-MS product analysis,[3]; 50 µM,PhGES (MF503883) produced uniquely geraniol in presence of GPP as a substrate
CC(C)=CCC/C(C)=C/CO [geraniol],GC-MS product analysis,[3]; sole product from GPP,PhGES (MF503883) produced uniquely geraniol in presence of GPP as a substrate
CC(C)=CCC/C(C)=C/CC/C(C)=C/COP(=O)(O)OP(=O)(O)O [FPP],GC-MS product analysis,[1]; 50 µM,"PhEDS (MF503882) produced 10-epi-γ-eudesmol and α-eudesmol as major and minor products, respectively, after incubation with FPP"
C=CC(=C)CCC=C(C)C [β-myrcene],GC-MS product analysis,[2]; major product from GPP,PhMYRS (MF503884) used GPP to produce β-myrcene as major compound
